Assay results published in patent US10881749B2, “Probes and methods of imaging a bacterial infection” (The Board of Trustees of the Leland Stanford Junior …, priority 2015, dated 2021).

Experiments:
[1] = system: E. coli; experiment: Uptake of tracer in E. coli bacterial culture, with maltose competition; type: cell-based, Escherichia coli; conditions: for blocking of uptake in E. coli by co-incubation with cold maltose: co-incubation with 1 mM of cold maltose, p<0.0003; for accumulation (uptake) of tracer in E. coli over time: in vitro bacterial culture
Method: FIG. 2.1 is a graph showing uptake of 6″-[^18F]fluoromaltotriose in vitro in E coli at 15 minutes, 30 minutes, and 30 minutes with 1 mM of maltose.
(§1) 6″-[^18F]-fluoromaltotriose (FIG. 1.1B) was synthesized. The uptake of 6″-[^18F]-fluoromaltotriose was evaluated in E. coli. […] The uptake in E. coli could also be blocked by a co-incubation with 1 mM of cold maltose (98% blocking, p<0.0003), the natural substrate of the transporter, confirming that the tracer was a substrate of the bacterial maltose transporter. 10^8 colony-forming units (CFU) of E. coli was then inoculated in the right thigh muscle of nude mice (n=4). 24 h later, 200 uCi of the 6″-[^18F]-fluoromaltotriose was administered via tail vein and dynamic PET/CT scans were obtained over the course of one hour. […] The route of clearance of the tracer is renal which makes it suitable for clinical translation.
In regard to FIG. 5.1A, 6″-[^18F]fluoromaltotriose was synthesized from precursor per-O-acetyl-6″-deoxy-6″-nosyl-maltotriose (1). Precursor 1 was prepared from per-O-acetyl-6″-hydroxymaltotriose via a nosylation reaction. This method utilizes the reaction between the leaving group nosylate in precursor 1 and anhydrous [^18F]KF/Kryptofix 2.2.2 in acetonitrile at 85° C. for 15 min to give per-O-acetyl-6″-deoxy-6″-[^18F]fluoromaltotriose (2). Basic hydrolysis of the acetyl protecting groups in 2 yielded 6″-[^18F]fluoromaltotriose (3). Also, cold 6″-fluoromaltotriose (for comparison with 6″ [^18F]fluoromatotriose) was prepared from per-O-acetyl-6-hydroxymaltotriose via a DAST reaction followed by a basic hydrolysis. Escherichia-coli uptake of 6″-[^18F]fluoromaltotriose was evaluated in bacterial culture.
We have successfully synthesized 6″-[^18F]fluoromaltotriose in 4-7% radiochemical yield (decay corrected) with 95% chemical and radio-chemical purities. Total synthesis time was 125 min. […] This observation is consistent with 6″-[^18F]fluoromaltotriose being recognized and transported by the bacteria in a manner similar to maltose.

[2] = system: E. coli; experiment: PET/CT imaging of E. coli infection in thigh muscle of nude mice; type: in vivo; conditions: for route of clearance: mice, intravenous (tail vein)
Method: FIGS. 1.1A-B show PET/CT scan of a mouse that had been injected with 200 μCi of 6″-[^18F]-fluoromaltotriose. The arrow indicates the site of infection.
as §1, with “(n=4).” for “(n=4). 24 h later, 200 uCi of the 6″-[^18F]-fluoromaltotriose was administered via tail vein and dynamic PET/CT scans were obtained over the course of one hour.”

[3] = Biodistribution and pharmacokinetics in mice; type: in vivo; conditions: FIG. 3.1
Description: FIG. 3.1 illustrates a graph comparing the biodistribution and pharmacokinetics of 6-fluoromaltose and 6″-fluoromaltotriose in mice.
FIG. 3.1, example 3, illustrates a graph comparing the biodistribution and pharmacokinetics of 6-fluoromaltose and 6″-Fluoromaltotriose in mice.

[4] = listed as 6″-[^18F]fluoromaltotriose

Q: What does the source list for `OC[C@H]1O[C@H](O[C@H]2[C@H](O)[C@@H](O)C(O)O[C@@H]2CO)[C@H](O)[C@@H](O)[C@@H]1O[C@H]1O[C@H](C[18F])[C@@H](O)[C@H](O)[C@H]1O` (some centres unmarked) [6″-[^18F]-fluoromaltotriose, 6″-[^18F]fluoromaltotriose]?
A: blocking of uptake in E. coli by co-incubation with cold maltose [1]: 98%; blocking of uptake in E. coli by co-incubation with cold maltose [1, 4]: 90%; accumulation (uptake) of tracer in E. coli over time [1]: increased over time; accumulation (uptake) of tracer in E. coli over time ([1]; listed as 6″-[^19F]fluoromaltotriose): time dependent; imaging of viable bacteria ([2]; 2 hours after implantation (FIG. 1.2)): can image 10^8 CFU of viable bacteria; accumulation of tracer at the site of infection (PET/CT image) ([2]; PET/CT image at 1 hour, 24 h after inoculation): clearly accumulated in the infected leg; uptake in infected muscle relative to contra-lateral muscle ([2]; ROI analysis, PET/CT, p<0.05): 3.1 fold; route of clearance [2]: renal; route of clearance [2, 4]: predominantly renal clearance; average uptake in infected muscle (ROI analysis) ([2]; nude mice, 10^8 CFU E. coli in right thigh muscle, 24 h later 200 uCi via tail vein, PET/CT at 1 hour, mean±SD): 4.7±1.3 % ID/g; tissue uptake as compared to first generation tracer 6-fluoromaltose [3]: reduced blood, heart, liver, lung and muscle uptake
